In patent US20050074879A1, “Antisense oligonucleotide modulation of STAT3 expression” (priority 2000, published 2005):
Oligonucleotides are written 5' to 3', each unit as a sugar letter and its base; * is a phosphorothioate linkage, no mark a phosphodiester; rarer units and linkages stand in square brackets, end groups in braces. Plain capitals give the bases only. e = 2'-O-(2-methoxyethyl) (MOE); [5mC] = 5-methylcytosine; d = 2'-deoxy (DNA)

Experiments:
Mouse STAT3 mRNA = experiment: Inhibition of mouse STAT3 mRNA expression in BCL1 cells (electroporation; RNase protection/Northern blot); type: cell-based; design: % mRNA INHIBITION: dose or concentration left out as unconfirmed; settings: BCL1 cells electroporated with oligonucleotide, RNA collected 24 hours later; for % mRNA EXPRESSION: control 100%
Protocol: The B lymphoma cell line, BCL1 was obtained from ATCC (Rockville, Md.). BCL1 cells were cultured in RPMI 1640 medium.
BCL1 cells (5×10^6 cells in PBS) were transfected with oligonucleotides by electroporation, at 200V, […]. using a BTX Electro Cell Manipulator 600 (Genetronics, San Diego, Calif.). For an initial screen, BCL1 were electroporated with […] oligonucleotide and RNA collected 24 hours later. Controls without oligonucleotide were subjected to the same electroporation conditions.
Total cellular RNA was isolated using the RNEASY7 kit (Qiagen, Santa Clarita, Calif.). RNAse protection experiments were conducted using RIBOQUANT™ kits and template sets according to the manufacturer's instructions (Pharmingen, San Diego, Calif.). Northern blotting was performed as described in Chiang, M-Y. et al. (J. Biol. Chem., 1991, 266, 18162-18171), using a rat cDNA probe prepared by Xho I/Sal I restriction digest of psvsport-1 plasmid (ATCC, Rockville, Md.). mRNA levels were quantitated using a PhosphorImager (Molecular Dynamics, Sunnyvale, Calif.).

Human STAT3 mRNA = experiment: Inhibition of human STAT3 mRNA expression in U266 cells, Northern blot; type: cell-based; settings: for % mRNA INHIBITION / % mRNA EXPRESSION: U266 cells, 2.5 μM oligonucleotide, electroporation, 24 hours; for % mRNA EXPRESSION: percent of control
Protocol: U266 human myeloma cell lines (originally obtained from American Type Culture Collection) were maintained in RPMI 1640 medium supplemented with 10% fetal calf serum. Cells (15×10^6 cells in PBS) were transfected with oligonucleotides at 200V with a single 6-millisecond pulse using a BTX Electro Square Porator T820 (Genetronics, San Diego Calif.). The cells were incubated for 24 hours before RNA extraction.
Total cellular RNA was isolated using the Rneasy kit (Qiagen, Santa Clarita, Calif.). Northern blotting was perfomed on 15 μg of RNA using a cDNA probe prepared from MB-MDA 468 RNA by standard RT-PCR followed by a nested primer reaction. Signals were quantitated using a Molecular Dynamics Phosphorimager.
In order to examine the importance of STAT3 expression in multiple myeloma cells, a series of 20mer STAT3 antisense oligonucleotides were designed and synthesized, using phosphorothioate chemistry and incorporating 2′-O-methoxyethyl modifications to improve hybridization affinity and nuclease resistance.

| Substance | % mRNA INHIBITION (Human STAT3 mRNA) | % mRNA EXPRESSION (Human STAT3 mRNA) | further results |
| --- | --- | --- | --- |
| 17148 (antisense ACTCAAACTGCCCTCCTGCT; listed as DNA, chemistry not fully specified) [compound 17148] | 4.9% | 95.1% | % mRNA INHIBITION (Mouse STAT3 mRNA): 31%; % mRNA EXPRESSION (Mouse STAT3 mRNA): 69%; Percent inhibition of STAT3 expression (Human STAT3 mRNA; Oligo concentration 2.5 μM): 8%; Percent inhibition of STAT3 expression (Human STAT3 mRNA; Oligo concentration 5 μM): 54%; Percent inhibition of STAT3 expression (Human STAT3 mRNA; Oligo concentration 10 μM): 60% |
| 17155 (antisense eT*eG*eA*eA*eA*dA*dA*dG*dG*dA*dG*dG*dG*dC*dA*eG*eG*e[5mC]*eG*eG) [compound 17155] |  |  | % mRNA INHIBITION (Mouse STAT3 mRNA): 22%; % mRNA EXPRESSION (Mouse STAT3 mRNA): 78% |
| 17156 (antisense e[5mC]*eA*e[5mC]*e[5mC]*eA*dG*dG*dA*dG*dG*dC*dA*dC*dT*dT*eG*eT*e[5mC]*eT*eA) [compound 17156] |  |  | % mRNA INHIBITION (Mouse STAT3 mRNA): 60%; % mRNA EXPRESSION (Mouse STAT3 mRNA): 40% |
| 17157 (antisense eA*eA*e[5mC]*e[5mC]*eT*dC*dC*dT*dG*dG*dG*dC*dT*dT*dA*eG*eT*e[5mC]*e[5mC]*eT) [compound 17157] |  |  | % mRNA INHIBITION (Mouse STAT3 mRNA): 47%; % mRNA EXPRESSION (Mouse STAT3 mRNA): 53% |
| 113170 (eA*eG*e[5mC]*eT*eG*dA*dT*dT*d[5mC]*d[5mC]*dA*dT*dT*dG*dG*eG*e[5mC]*e[5mC]*eA*eT) [compound 113170] | 10.4% | 89.6% |  |
| 113171 (e[5mC]*e[5mC]*eA*eG*eG*dA*dG*dA*dT*dT*dA*dT*dG*dA*dA*eA*e[5mC]*eA*e[5mC]*e[5mC]) [compound 113171] |  | 110.2% |  |
| 113172 (antisense eA*e[5mC]*e[5mC]*eG*eT*dG*dT*dG*dT*d[5mC]*dA*dA*dG*d[5mC]*dT*eG*e[5mC]*eT*eG*eT) [compound 113172] | 3.9% | 96.1% |  |
| 113173 (antisense e[5mC]*e[5mC]*eA*eT*eT*dG*dG*dG*dA*dA*dG*d[5mC]*dT*dG*dT*e[5mC]*eA*e[5mC]*eT*eG) [compound 113173] |  | 119% |  |
| 113175 (antisense eG*e[5mC]*eG*eG*e[5mC]*dT*dA*dT*dA*d[5mC]*dT*dG*d[5mC]*dT*dG*eG*eT*e[5mC]*eA*eA) [compound 113175] | 24.2% | 75.8% |  |
| 113178 (antisense eT*eG*eA*eT*eT*d[5mC]*dT*dT*d[5mC]*d[5mC]*d[5mC]*dA*d[5mC]*dA*dG*eG*e[5mC]*eA*e[5mC]*e[5mC]) [compound 113178] |  | 143.9% |  |
| 113181 (antisense e[5mC]*e[5mC]*e[5mC]*eG*e[5mC]*d[5mC]*dA*dG*d[5mC]*dT*d[5mC]*dA*d[5mC]*dT*d[5mC]*eA*e[5mC]*eG*eA*eT) [compound 113181] |  | 105.4% |  |
| 113184 (antisense e[5mC]*eG*e[5mC]*e[5mC]*eT*d[5mC]*dT*dT*d[5mC]*d[5mC]*dA*dG*dT*d[5mC]*dA*eG*e[5mC]*e[5mC]*eA*eG) [compound 113184] |  | 104.3% |  |
| 113187 (antisense e[5mC]*e[5mC]*eG*e[5mC]*eT*d[5mC]*d[5mC]*dA*d[5mC]*d[5mC]*dA*d[5mC]*dA*dA*dA*eG*eG*e[5mC]*eA*e[5mC]) [compound 113187] | 44.1% | 55.9% | Percent inhibition of STAT3 expression (Human STAT3 mRNA; Oligo concentration 2.5 μM): 44%; Percent inhibition of STAT3 expression (Human STAT3 mRNA; Oligo concentration 5 μM): 56%; Percent inhibition of STAT3 expression (Human STAT3 mRNA; Oligo concentration 10 μM): 75% |
| 113189 (antisense eT*eT*eG*eT*eG*dT*dT*dT*dG*dT*dG*d[5mC]*d[5mC]*d[5mC]*dA*eG*eA*eA*eT*eG) [compound 113189] |  | 163.9% |  |
| 113207 (antisense eA*eT*e[5mC]*eA*e[5mC]*d[5mC]*d[5mC]*dA*d[5mC]*dA*dT*dT*d[5mC]*dA*d[5mC]*eT*e[5mC]*eA*eT*eT) [compound 113207] |  | 123.6% |  |
| 113209 (antisense eA*eA*eA*eA*eG*dT*dG*d[5mC]*d[5mC]*d[5mC]*dA*dG*dA*dT*dT*eG*e[5mC]*eT*e[5mC]*eA) [compound 113209] | 28.6% | 71.4% | Percent inhibition of STAT3 expression (Human STAT3 mRNA; Oligo concentration 2.5 μM): 43%; Percent inhibition of STAT3 expression (Human STAT3 mRNA; Oligo concentration 5 μM): 54%; Percent inhibition of STAT3 expression (Human STAT3 mRNA; Oligo concentration 10 μM): 73% |
| 113210 (antisense eT*eA*eA*eA*eA*dG*dT*dG*d[5mC]*d[5mC]*d[5mC]*dA*dG*dA*dT*eT*eG*e[5mC]*eT*e[5mC]) [compound 113210] | 27.8% | 72.2% | Percent inhibition of STAT3 expression (Human STAT3 mRNA; Oligo concentration 2.5 μM): 36%; Percent inhibition of STAT3 expression (Human STAT3 mRNA; Oligo concentration 5 μM): 50%; Percent inhibition of STAT3 expression (Human STAT3 mRNA; Oligo concentration 10 μM): 76% |
| 113211 (antisense eA*eA*eG*e[5mC]*eA*dG*dA*dT*d[5mC]*dA*d[5mC]*d[5mC]*d[5mC]*dA*d[5mC]*eA*eT*eT*e[5mC]*eA) [compound 113211] |  | 116.5% |  |
